Data on eight compounds can be found in PubChem BioAssay AID1259407 (Chemical Carcinogenesis Research Information System (CCRIS), 2018).

This data set relates to CCRIS mutagenicity, Ames/micronucleus/aberration tests. Description: CCRIS mutagenicity studies.
The mark [1] stands for this setting: Test System: AMES SALMONELLA TYPHIMURIUM, Strain/Indicator: TA98, Metabolic Activation: NONE, Method: PREINCUBATION
The mark [2] stands for this setting: Test System: AMES SALMONELLA TYPHIMURIUM, Strain/Indicator: TA100, Metabolic Activation: NONE, Method: PREINCUBATION
Where [3] appears, read: Test System: AMES SALMONELLA TYPHIMURIUM, Strain/Indicator: TA98, Metabolic Activation: NONE, Method: STANDARD PLATE.
[4] abbreviates: Test System: AMES SALMONELLA TYPHIMURIUM, Strain/Indicator: TA98, Metabolic Activation: RAT, LIVER, S-9, AROCLOR 1254, Method: STANDARD PLATE.
The mark [5] stands for this setting: Test System: AMES SALMONELLA TYPHIMURIUM, Strain/Indicator: TA100, Metabolic Activation: NONE, Method: STANDARD PLATE.
The mark [6] stands for this setting: Test System: AMES SALMONELLA TYPHIMURIUM, Strain/Indicator: TA100, Metabolic Activation: RAT, LIVER, S-9, AROCLOR 1254, Method: STANDARD PLATE.
[7] abbreviates: Test System: AMES SALMONELLA TYPHIMURIUM, Strain/Indicator: TA1535, Metabolic Activation: NONE, Method: STANDARD PLATE.
Where [8] appears, read: Test System: AMES SALMONELLA TYPHIMURIUM, Strain/Indicator: TA1537, Metabolic Activation: NONE, Method: STANDARD PLATE.
Where [9] appears, read: Test System: AMES SALMONELLA TYPHIMURIUM, Strain/Indicator: TA100, Metabolic Activation: RAT, LIVER, S-9, PHENOBARBITAL AND 5,6-BENZOFLAVONE, Method: PREINCUBATION

Each structure is given as a SMILES string. Active and inactive are the calls of the source. How the calls were made is not given here. Where a SMILES comes first, the peptide text is derived from it. [ ]: non-standard residue; d: D form. ξ: configuration not given here. Trp(1-OMe) = COn1cc(C[C@H](N)C(=O)O)c2ccccc21; Asu = N[C@@H](CCCCCC(=O)O)C(=O)O; Ile(3ξ) = CCC(C)[C@H](N)C(=O)O; dPip = O=C(O)[C@H]1CCCCN1

Consider `CCC(C)[C@@H]1NC(=O)[C@H](Cc2cn(OC)c3ccccc23)NC(=O)[C@H](CCCCCC(=O)OC)NC(=O)[C@H]2CCCCN2C1=O` (stereo partly drawn) (cyclo([Asu](OMe)[Trp(1-OMe)][Ile(3ξ)][dPip])), for which the mutagenic call is, setting by setting: (End Point: IN VITRO CHROMOSOMAL ABERRATIONS, Test System: CHO CELLS, Metabolic Activation: NONE) “active; positive (structural changes)”; (End Point: IN VITRO CHROMOSOMAL ABERRATIONS, Test System: CHO CELLS, Metabolic Activation: RAT, LIVER, S-9, AROCLOR 1254) “active; positive (structural changes)”; (End Point: IN VIVO MICRONUCLEUS, Test System: BONE MARROW POLYCHROMATIC ERYTHROCYTES, Species: MOUSE, Strain/Sex: ICR/MALE, Route: IP INJECTION) “active; positive”; under setting [1], “inactive; negative”; (Test System: AMES SALMONELLA TYPHIMURIUM, Strain/Indicator: TA98, Metabolic Activation: RAT, LIVER, S-9, AROCLOR 1254, Method: PREINCUBATION) “inactive; negative”; under setting [2], “inactive; negative”. In addition, the mutagenic call by setting is: (Test System: AMES SALMONELLA TYPHIMURIUM, Strain/Indicator: TA100, Metabolic Activation: RAT, LIVER, S-9, AROCLOR 1254, Method: PREINCUBATION) “inactive; negative”; (Test System: AMES SALMONELLA TYPHIMURIUM, Strain/Indicator: TA102, Metabolic Activation: NONE, Method: PREINCUBATION) “inactive; negative”; (Test System: AMES SALMONELLA TYPHIMURIUM, Strain/Indicator: TA102, Metabolic Activation: RAT, LIVER, S-9, AROCLOR 1254, Method: PREINCUBATION) “inactive; negative”; (Test System: AMES SALMONELLA TYPHIMURIUM, Strain/Indicator: TA1535, Metabolic Activation: NONE, Method: PREINCUBATION) “inactive; negative”; (Test System: AMES SALMONELLA TYPHIMURIUM, Strain/Indicator: TA1535, Metabolic Activation: RAT, LIVER, S-9, AROCLOR 1254, Method: PREINCUBATION) “inactive; negative”; (Test System: AMES SALMONELLA TYPHIMURIUM, Strain/Indicator: TA1537, Metabolic Activation: NONE, Method: PREINCUBATION) “inactive; negative”. Also, the mutagenic call (Test System: AMES SALMONELLA TYPHIMURIUM, Strain/Indicator: TA1537, Metabolic Activation: RAT, LIVER, S-9, AROCLOR 1254, Method: PREINCUBATION) was “inactive; negative”.
Regarding `Nc1cccc([N+](=O)[O-])c1O`, the mutagenic call was “inactive; negative” under setting [3]; “inactive; negative” under setting [4]; “inactive; negative” under setting [5]; “inactive; negative” under setting [6]; “inactive; negative” under setting [7]; “inactive; negative” (Test System: AMES SALMONELLA TYPHIMURIUM, Strain/Indicator: TA1535, Metabolic Activation: RAT, LIVER, S-9, AROCLOR 1254, Method: STANDARD PLATE). Also, the mutagenic call reads like this: under setting [8], “inactive; negative”; (Test System: AMES SALMONELLA TYPHIMURIUM, Strain/Indicator: TA1537, Metabolic Activation: RAT, LIVER, S-9, AROCLOR 1254, Method: STANDARD PLATE) “inactive; negative”; (Test System: AMES SALMONELLA TYPHIMURIUM, Strain/Indicator: TA1538, Metabolic Activation: NONE, Method: STANDARD PLATE) “inactive; negative”; (Test System: AMES SALMONELLA TYPHIMURIUM, Strain/Indicator: TA1538, Metabolic Activation: RAT, LIVER, S-9, AROCLOR 1254, Method: STANDARD PLATE) “inactive; negative”.
Take `COc1ccc2cc1Oc1ccc(cc1)C[C@H]1c3cc(c(OC)cc3CCN1C)Oc1c(OC)c(OC)cc3c1[C@H](C2)N(C)CC3`: the mutagenic call is, setting by setting: under setting [3], “inactive; negative”; under setting [4], “active; positive”; under setting [5], “inactive; negative”; under setting [6], “inactive; negative”.
Consider `Cc1cnc2ccccc2c1`, for which the mutagenic call is, setting by setting: under setting [1], “inactive; negative”; (Test System: AMES SALMONELLA TYPHIMURIUM, Strain/Indicator: TA98, Metabolic Activation: RAT, LIVER, S-9, Method: PREINCUBATION) “inactive; negative”; under setting [2], “inactive; negative”; under setting [9], “active; positive”; (Test System: AMES SALMONELLA TYPHIMURIUM, Strain/Indicator: TA100, Metabolic Activation: RAT, LIVER, S-9, PHENOBARBITAL AND 5,6-NAPHTHOFLAVONE, Method: PREINCUBATION) “active; positive”.
As to `C1=Cc2cc3ccccc3c3cccc1c23`, the mutagenic call was “inactive; negative” under setting [3], “active; positive” under setting [4], “inactive; negative” under setting [5] and “active; positive” under setting [6].
As to `COc1cc(OC)c2c(=O)c3cc(OC)ccc3oc2c1`, the mutagenic call is, setting by setting: (Test System: AMES SALMONELLA TYPHIMURIUM, Strain/Indicator: TA97, Metabolic Activation: RAT, LIVER, S-9, PHENOBARBITAL AND 5,6-BENZOFLAVONE, Method: PREINCUBATION) “active; positive”; (Test System: AMES SALMONELLA TYPHIMURIUM, Strain/Indicator: TA98, Metabolic Activation: RAT, LIVER, S-9, PHENOBARBITAL AND 5,6-BENZOFLAVONE, Method: PREINCUBATION) “inactive; negative”; under setting [9], “active; positive”; (Test System: AMES SALMONELLA TYPHIMURIUM, Strain/Indicator: TA2637, Metabolic Activation: NONE, Method: PREINCUBATION) “active; positive”; (Test System: AMES SALMONELLA TYPHIMURIUM, Strain/Indicator: TA2637, Metabolic Activation: RAT, LIVER, S-9, PHENOBARBITAL AND 5,6-BENZOFLAVONE, Method: PREINCUBATION) “active; positive”.
For `Nc1snc2ccc([N+](=O)[O-])cc12`, the mutagenic call is, setting by setting: under setting [3], “active; positive”; (Test System: AMES SALMONELLA TYPHIMURIUM, Strain/Indicator: TA98, Metabolic Activation: S-9, Method: STANDARD PLATE) “active; positive”; under setting [5], “active; positive”; (Test System: AMES SALMONELLA TYPHIMURIUM, Strain/Indicator: TA100, Metabolic Activation: S-9, Method: STANDARD PLATE) “active; positive”; under setting [7], “inactive; negative”; (Test System: AMES SALMONELLA TYPHIMURIUM, Strain/Indicator: TA1535, Metabolic Activation: S-9, Method: STANDARD PLATE) “inactive; negative”. The mutagenic call by setting is: under setting [8], “active; positive”; (Test System: AMES SALMONELLA TYPHIMURIUM, Strain/Indicator: TA1537, Metabolic Activation: S-9, Method: STANDARD PLATE) “active; positive”.
On to `C=CC(Cl)CCl` (stereo not drawn), for which the mutagenic call runs as follows: (Test System: AMES SALMONELLA TYPHIMURIUM, Strain/Indicator: TA102, Metabolic Activation: RAT LIVER S-9, PHENOBARBITAL AND 5,6-BENZOFLAVONE, Method: STANDARD PLATE) “inactive; negative”; (Test System: AMES SALMONELLA TYPHIMURIUM, Strain/Indicator: TA2638, Metabolic Activation: RAT LIVER S-9, PHENOBARBITAL AND 5,6-BENZOFLAVONE, Method: STANDARD PLATE) “inactive; negative”; (Test System: E. COLI, Strain/Indicator: WP2 (PKM101), Metabolic Activation: RAT LIVER S-9, PHENOBARBITAL AND 5,6-BENZOFLAVONE, Method: STANDARD PLATE) “inactive; negative”; (Test System: E. COLI, Strain/Indicator: WP2 UVRA (PKM101), Metabolic Activation: RAT LIVER S-9, PHENOBARBITAL AND 5,6-BENZOFLAVONE, Method: STANDARD PLATE) “inactive; negative”.
